Columns and labels:
[1] = Effect of compounds on host cell viability (MTT); assay type: cell-based; conditions: human
Summary of the method: (§1)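 Viability was read as MTT reduction: 2 h with 0.5 mg/mL, formazan dissolved in isopropanol, A560 with 670 nm background subtracted. The macrophages were PMA-differentiated THP-1 cells (150 nM, 72 h), treated 24 h at 1–50 μM or, for some compounds, 72 h at 1–300 μM.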

[2] = system: THP-1 macrophages; assay: Effect of compounds on host cell viability (MTT); assay type: cell-based
Summary of the method: as §1

SMILES: O=C(CNCc1cccc(F)c1)Nc1ccc(-n2cc(C(F)(F)F)nc2-c2ccc(-c3ccc(C(F)(F)F)cc3)cc2)cc1 [Compound 197]
- CC50 at 24 h [1]: > 50 µM
- CC50 at 72 h [1]: > 300 µM
- CC50 [2]: > 300 µM
- reduction in macrophage viability ([2]; 72hr incubation up to 300μM): Neither compound had any reduction

Reference: article doi:10.1101/2025.11.04.686469, “Discovery of Host-Directed Small Molecules with Broad Anti-Leishmanial Efficacy” (bioRxiv, 2025)
